We go through three molecules from ChEMBL document CHEMBL1149317, “Synthesis and in vitro antifolate activity of rotationally restricted aminopterin and methotrexate analogues” (J Med Chem, 2004).

The subject of one assay is CCRF-CEM. Put plainly: Growth inhibition of human CCRF-CEM cells after 72 hrs. The assay is classed as functional, cell-based.
For assay [1], the target named is T1, Reduced folate transporter (Homo sapiens, UniProt P41440).
T1 sequence (P41440 whole entry): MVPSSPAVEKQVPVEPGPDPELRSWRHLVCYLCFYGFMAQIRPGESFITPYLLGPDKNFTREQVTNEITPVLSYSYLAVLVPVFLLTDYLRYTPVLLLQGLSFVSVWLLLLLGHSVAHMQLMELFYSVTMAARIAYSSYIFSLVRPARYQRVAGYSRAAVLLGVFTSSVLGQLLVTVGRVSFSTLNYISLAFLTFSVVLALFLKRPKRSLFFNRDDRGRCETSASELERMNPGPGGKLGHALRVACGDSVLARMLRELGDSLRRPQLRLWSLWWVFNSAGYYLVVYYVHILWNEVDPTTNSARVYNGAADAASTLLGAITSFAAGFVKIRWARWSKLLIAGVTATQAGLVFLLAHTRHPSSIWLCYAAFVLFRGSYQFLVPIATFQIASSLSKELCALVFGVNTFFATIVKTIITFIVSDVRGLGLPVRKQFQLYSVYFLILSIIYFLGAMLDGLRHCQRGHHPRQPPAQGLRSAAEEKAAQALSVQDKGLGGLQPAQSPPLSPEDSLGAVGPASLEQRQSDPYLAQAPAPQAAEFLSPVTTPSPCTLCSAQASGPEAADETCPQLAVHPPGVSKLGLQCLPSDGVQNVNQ
Put plainly: Inhibition of RFC-mediated [3H]MTX influx into human CCRF-CEM cells. The assay is classed as cell-based.

In another assay the target is T2, Dihydrofolate reductase (Homo sapiens, UniProt P00374).
T2 sequence (P00374 whole entry): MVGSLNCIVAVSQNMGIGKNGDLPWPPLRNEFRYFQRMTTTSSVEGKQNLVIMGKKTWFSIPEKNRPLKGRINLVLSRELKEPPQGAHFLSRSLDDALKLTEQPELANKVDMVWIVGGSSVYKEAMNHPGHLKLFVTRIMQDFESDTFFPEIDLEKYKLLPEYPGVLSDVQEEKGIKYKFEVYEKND
Briefly: Inhibition of human DHFR.

Molecules are shown by their SMILES.

On to `Nc1nc(N)c2nc(CNc3ccc4c(c3)CN(C(CCC(=O)O)C(=O)O)C4=O)cnc2n1` (racemic), for which the IC50 in the assay on CCRF-CEM amounted to 8.4 nM. For the same molecule, the Ki was 530 nM in assay [1] and 0.077 nM at Dihydrofolate reductase.
For `CN(Cc1cnc2nc(N)nc(N)c2n1)c1ccc2c(c1)CN([C@@H](CCC(=O)O)C(=O)O)C2=O` the same measures were 140 nM, 1100 nM and 2.1 nM.
For `Nc1nc(N)c2nc(CNc3ccc4c(c3)CN([C@@H](CCC(=O)O)C(=O)O)C4=O)cnc2n1` the same measures were 5.1 nM, 280 nM and 0.034 nM.
